Assay [1] relates to Pseudomonas aeruginosa. Briefly: Antimicrobial activity against Pseudomonas aeruginosa ATCC 9027 by agar cup diffusion technique. It counts as functional.
The subject of assay [2] is Candida albicans. As to the kind of experiment: Antimicrobial activity against Candida albicans ATCC 10231 by two-fold serial dilution technique. It counts as functional.
Assay [3] addresses Glycogen synthase kinase-3 alpha (Homo sapiens, UniProt P49840). As to the kind of experiment: Inhibition of GSK3alpha (unknown origin) using GS-l peptide as substrate and [gamma-33P]-ATP after 10 min.
In assay [4] the target is Cyclin-dependent kinase 5/CDK5 activator 1 (Homo sapiens, UniProt Q00535). As to the kind of experiment: Inhibition of CDK5/p25 (unknown origin) using histone H1 as substrate and [gamma-33P]-ATP after 10 min. It counts as protein-complex assay.
Cyclin-dependent kinase 5/CDK5 activator 1, sequence (Q00535 whole entry, the tested form may be a part): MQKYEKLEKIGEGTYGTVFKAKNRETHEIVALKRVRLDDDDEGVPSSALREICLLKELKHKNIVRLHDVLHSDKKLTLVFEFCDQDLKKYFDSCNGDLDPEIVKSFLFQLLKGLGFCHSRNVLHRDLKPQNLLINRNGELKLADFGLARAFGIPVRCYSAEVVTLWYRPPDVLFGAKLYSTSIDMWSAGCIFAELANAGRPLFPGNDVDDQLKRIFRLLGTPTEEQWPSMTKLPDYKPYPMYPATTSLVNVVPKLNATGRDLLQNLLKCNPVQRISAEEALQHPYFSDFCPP
Cyclin-dependent kinase 5/CDK5 activator 1, sequence (Q15078 whole entry, further chain, the tested form may be a part): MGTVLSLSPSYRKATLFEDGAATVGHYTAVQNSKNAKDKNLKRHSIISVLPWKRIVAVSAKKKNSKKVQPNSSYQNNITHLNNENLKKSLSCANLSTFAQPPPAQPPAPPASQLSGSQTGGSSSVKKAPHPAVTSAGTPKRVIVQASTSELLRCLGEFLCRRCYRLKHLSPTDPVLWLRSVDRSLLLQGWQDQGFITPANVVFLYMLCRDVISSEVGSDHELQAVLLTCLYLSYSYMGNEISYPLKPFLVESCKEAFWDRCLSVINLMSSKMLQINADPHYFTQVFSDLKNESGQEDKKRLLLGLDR
The test system of assay [5] is Escherichia coli. Briefly: Antimicrobial activity against Escherichia coli NCTC 10418 by agar cup diffusion technique. It counts as functional.
For assay [6], the target named is Dual specificity tyrosine-phosphorylation-regulated kinase 1A (Homo sapiens, UniProt Q13627). As to the kind of experiment: Inhibition of DYRK1A (unknown origin) using [gamma-33P]-ATP after 10 min.
Assay [7] has as its target Glycogen synthase kinase-3 beta (Homo sapiens, UniProt P49841). Briefly: Inhibition of GSK3beta (unknown origin) using GS-l peptide as substrate and [gamma-33P]-ATP after 10 min.
In assay [8] the target is T1, Cyclin-dependent kinase 1/cyclin B1 (Homo sapiens, UniProt P06493). As to the kind of experiment: Inhibition of CDK1/cyclin B (unknown origin) using histone H1 as substrate and [gamma-33P]-ATP after 10 min. It counts as protein-complex assay.
T1 sequence (P06493 whole entry, the tested form may be a part): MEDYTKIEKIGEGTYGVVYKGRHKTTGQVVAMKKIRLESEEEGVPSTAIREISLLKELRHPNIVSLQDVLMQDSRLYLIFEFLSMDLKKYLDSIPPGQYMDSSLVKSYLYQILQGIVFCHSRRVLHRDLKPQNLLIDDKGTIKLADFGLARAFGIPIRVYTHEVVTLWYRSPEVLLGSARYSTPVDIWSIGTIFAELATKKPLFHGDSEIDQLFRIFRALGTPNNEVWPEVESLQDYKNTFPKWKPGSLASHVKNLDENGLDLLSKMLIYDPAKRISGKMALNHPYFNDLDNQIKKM
T1 sequence (P14635 whole entry, further chain, the tested form may be a part): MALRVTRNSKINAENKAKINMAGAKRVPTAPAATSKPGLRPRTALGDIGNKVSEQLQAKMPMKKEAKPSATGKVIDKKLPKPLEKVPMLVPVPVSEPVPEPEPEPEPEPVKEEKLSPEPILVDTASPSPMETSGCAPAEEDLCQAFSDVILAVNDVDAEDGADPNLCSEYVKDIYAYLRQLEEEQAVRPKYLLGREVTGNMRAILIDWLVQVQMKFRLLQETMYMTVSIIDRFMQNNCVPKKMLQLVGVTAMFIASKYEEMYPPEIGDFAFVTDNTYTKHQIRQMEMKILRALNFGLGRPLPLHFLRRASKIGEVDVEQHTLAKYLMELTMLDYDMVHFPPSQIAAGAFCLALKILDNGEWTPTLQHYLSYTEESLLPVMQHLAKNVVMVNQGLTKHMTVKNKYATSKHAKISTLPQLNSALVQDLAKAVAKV
Assay [9] has as its system Candida albicans. As to the kind of experiment: Antimicrobial activity against Candida albicans ATCC 10231 by agar cup diffusion technique. It counts as functional.
The subject of assay [10] is Staphylococcus aureus. Briefly: Antimicrobial activity against Staphylococcus aureus ATCC 6538 by agar cup diffusion technique. It counts as functional.
For assay [11], the system named is Staphylococcus aureus. Briefly: Antimicrobial activity against Staphylococcus aureus ATCC 6538 by two-fold serial dilution technique. It counts as functional.
Assay [12] concerns Pseudomonas aeruginosa. As to the kind of experiment: Antimicrobial activity against Pseudomonas aeruginosa ATCC 9027 by two-fold serial dilution technique. It counts as functional.
The target in assay [13] is T1, Cyclin-dependent kinase 1/cyclin B1. As to the kind of experiment: Inhibition of CDK1/cyclin B (unknown origin). It counts as protein-complex assay.
The test system of assay [14] is Escherichia coli. As to the kind of experiment: Antimicrobial activity against Escherichia coli NCTC 10418 by two-fold serial dilution technique. It counts as functional.

Molecules are shown by their SMILES. ≈ marks a conversion by molar mass, not a printed value. A value given as a limit tells only on which side of the number the result lay.

Glycogen synthase kinase-3 beta, sequence (P49841 whole entry): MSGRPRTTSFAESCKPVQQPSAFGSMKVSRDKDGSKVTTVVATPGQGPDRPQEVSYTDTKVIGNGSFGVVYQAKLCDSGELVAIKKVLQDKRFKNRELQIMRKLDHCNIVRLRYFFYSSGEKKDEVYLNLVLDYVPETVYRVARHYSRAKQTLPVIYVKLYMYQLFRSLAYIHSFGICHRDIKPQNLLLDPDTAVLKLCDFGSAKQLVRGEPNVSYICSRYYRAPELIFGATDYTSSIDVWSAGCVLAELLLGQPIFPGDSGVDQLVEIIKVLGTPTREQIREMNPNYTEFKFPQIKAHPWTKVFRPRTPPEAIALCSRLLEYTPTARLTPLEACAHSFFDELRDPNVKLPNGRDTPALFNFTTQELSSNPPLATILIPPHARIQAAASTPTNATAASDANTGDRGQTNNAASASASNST
Glycogen synthase kinase-3 alpha, sequence (P49840 whole entry): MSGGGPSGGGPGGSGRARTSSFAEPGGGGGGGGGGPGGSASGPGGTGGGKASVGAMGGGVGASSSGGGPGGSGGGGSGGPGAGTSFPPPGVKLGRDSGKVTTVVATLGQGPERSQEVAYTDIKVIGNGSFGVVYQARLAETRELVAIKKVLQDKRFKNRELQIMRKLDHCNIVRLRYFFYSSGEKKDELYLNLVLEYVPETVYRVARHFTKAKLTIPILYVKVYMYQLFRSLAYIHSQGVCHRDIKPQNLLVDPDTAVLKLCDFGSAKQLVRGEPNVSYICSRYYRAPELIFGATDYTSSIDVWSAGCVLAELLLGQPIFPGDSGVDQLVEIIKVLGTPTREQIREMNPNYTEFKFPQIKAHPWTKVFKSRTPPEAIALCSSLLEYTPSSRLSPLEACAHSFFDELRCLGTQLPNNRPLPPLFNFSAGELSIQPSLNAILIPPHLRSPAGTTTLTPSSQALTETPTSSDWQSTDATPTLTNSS

Regarding `O=c1[nH]cnc2c(-c3ccc(Br)cc3)n[nH]c12`, the results for the “diameter of the inhibition zone (DIZ)” value with Pseudomonas aeruginosa [1], with Escherichia coli [5] and with Candida albicans [9] were 17.5 mm, 15.5 mm and 28 mm, respectively. The MBC against Candida albicans [2] turned out to be 250 µg/mL (≈ 859 µM). Moreover, the lowest concentration to inhibit growth with Candida albicans [2] (MIC) was 250 µg/mL (≈ 859 µM). Besides, the IC50 in assay [3], in [4], in [6], in [7] and in assay [8] was above 10 µM each time.

For the compound `CCOc1ccc(S(=O)(=O)N2CCOCC2)cc1-c1nc2ncccc2c(=O)[nH]1`, the “diameter of the inhibition zone (DIZ)” value in the assay on Staphylococcus aureus [10] stood at 10 mm; in the assay on Pseudomonas aeruginosa [1] it was 15 mm; in the assay with Escherichia coli [5], 17 mm; in the assay with Candida albicans [9], 17 mm. Besides, the IC50 in assay [3], in assay [4], in assay [6], in assay [7] and in assay [8] was above 10 µM in each case.

Consider `CCOc1ccc(S(=O)(=O)N2CCN(c3ccccc3)CC2)cc1-c1nc2ncccc2c(=O)[nH]1`, for which the “diameter of the inhibition zone (DIZ)” value in the assay with Staphylococcus aureus [10] came to 12 mm; in the assay with Pseudomonas aeruginosa [1] it was 15.5 mm; in the assay with Escherichia coli [5] it was 16.5 mm; with Candida albicans [9], 25 mm. Also, in the assay on Candida albicans [2], the MBC stood at 250 µg/mL (≈ 509 µM). In the assay on Candida albicans [2], this compound had an MIC of 62.5 µg/mL (≈ 127 µM). Further, the IC50 in [3], in [4], in [6], in assay [7] and in [8] was above 10 µM in each case.

In the case of `CCOC(=O)C(=O)/C(=N\Nc1ccccc1)C(=O)c1ccccc1`, the “diameter of the inhibition zone (DIZ)” value in the assay on Pseudomonas aeruginosa [1], in the assay with Escherichia coli [5] and in the assay on Candida albicans [9] was 16 mm throughout. In addition, the IC50 in assay [3], in assay [4], in [6], in [7] and in assay [8] was above 10 µM each time.

For `CCOC(=O)C(=O)/C(=N\Nc1ccccc1)C(=O)c1ccc(Cl)cc1`, the “diameter of the inhibition zone (DIZ)” value was found to be 17 mm in the assay on Pseudomonas aeruginosa [1], 16 mm with Escherichia coli [5] and 16 mm in the assay on Candida albicans [9]. The IC50 in [3], in assay [4], in assay [6], in assay [7] and in [8] was above 10 µM in each case.

As to `O=C1NN=C(c2ccccc2)/C(=N/Nc2ccccc2)C1=O`, the “diameter of the inhibition zone (DIZ)” value in the assay with Staphylococcus aureus [10] was 30 mm; in the assay on Pseudomonas aeruginosa [1], 24 mm; in the assay on Escherichia coli [5], 17 mm; in the assay on Candida albicans [9] it was 17.5 mm. For the same compound, the MBC against Staphylococcus aureus [11] was 62.5 µg/mL (≈ 214 µM); against Pseudomonas aeruginosa [12] it was 125 µg/mL (≈ 428 µM). In addition, the MIC amounted to 62.5 µg/mL (≈ 214 µM) in the assay on Staphylococcus aureus [11] and 125 µg/mL (≈ 428 µM) in the assay with Pseudomonas aeruginosa [12]. The half-maximal inhibitory concentration (IC50) in [3], in assay [4], in assay [6], in [7] and in assay [8] was above 10 µM each time.

For the compound `O=C1NN=C(c2ccc(Br)cc2)/C(=N/Nc2ccccc2)C1=O`, the “diameter of the inhibition zone (DIZ)” value in the assay on Staphylococcus aureus [10] worked out at 20 mm; in the assay with Pseudomonas aeruginosa [1], 17.5 mm; in the assay on Escherichia coli [5], 16 mm; in the assay with Candida albicans [9] it was 16.5 mm. Besides, in the assay on Staphylococcus aureus [11], the MBC came to 250 µg/mL (≈ 674 µM). For the same compound, in the assay on Staphylococcus aureus [11], the lowest concentration to inhibit growth (MIC) was 250 µg/mL (≈ 674 µM). For the same compound, the IC50 in assay [3], in assay [4], in assay [6], in assay [7] and in [8] was above 10 µM each time.

For `CCOC(=O)c1[nH]nc(-c2ccc(F)cc2)c1/N=N/c1ccccc1`, the “diameter of the inhibition zone (DIZ)” value in the assay with Staphylococcus aureus [10] worked out at 20 mm; with Pseudomonas aeruginosa [1], 17 mm; in the assay with Escherichia coli [5] it was 16 mm; in the assay with Candida albicans [9], 16 mm. This compound also came in with an MBC against Staphylococcus aureus [11] of 250 µg/mL (≈ 739 µM). Also, the MIC with Staphylococcus aureus [11] was 250 µg/mL (≈ 739 µM). For the same compound, the IC50 in assay [3], in assay [4], in assay [6], in assay [7] and in assay [8] was above 10 µM throughout.

Take `CCOC(=O)c1[nH]nc(-c2ccc(Cl)cc2)c1/N=N/c1ccccc1`: the “diameter of the inhibition zone (DIZ)” value in the assay with Staphylococcus aureus [10] is listed as 21 mm; in the assay with Pseudomonas aeruginosa [1], 16 mm; in the assay with Escherichia coli [5], 16.5 mm; in the assay on Candida albicans [9] it was 16 mm. The compound also gave an MBC in the assay on Staphylococcus aureus [11] of 250 µg/mL (≈ 705 µM). The compound further showed an MIC with Staphylococcus aureus [11] of 125 µg/mL (≈ 352 µM). Further, the IC50 in assay [3], in assay [4], in [6], in assay [7] and in [8] was above 10 µM in each case.

With `CCOC(=O)c1[nH]nc(-c2ccc(Cl)cc2)c1N`, the “diameter of the inhibition zone (DIZ)” value in the assay with Staphylococcus aureus [10] is recorded as 10 mm; with Pseudomonas aeruginosa [1], 23 mm; in the assay on Escherichia coli [5], 17 mm; in the assay on Candida albicans [9], 17 mm. Also, the IC50 in assay [3], in [4], in assay [6], in assay [7] and in assay [8] was above 10 µM each time. The compound further displayed an MBC against Pseudomonas aeruginosa [12] above 500 µg/mL. This compound also registered an MIC in the assay on Pseudomonas aeruginosa [12] of 125 µg/mL (≈ 470 µM).

On to `CCOC(=O)c1[nH]nc(-c2ccc(Br)cc2)c1N`, for which the “diameter of the inhibition zone (DIZ)” value with Staphylococcus aureus [10] was 14 mm; in the assay on Pseudomonas aeruginosa [1], 17 mm; with Escherichia coli [5], 15.5 mm; in the assay on Candida albicans [9] it was 16 mm. The IC50 in assay [3], in assay [4], in assay [6], in assay [7] and in [8] was above 10 µM throughout.

Take `O=c1[nH]cnc2c(-c3ccccc3)n[nH]c12`: the “diameter of the inhibition zone (DIZ)” value in the assay on Staphylococcus aureus [10] is 11 mm; in the assay on Pseudomonas aeruginosa [1] it was 17.5 mm; with Escherichia coli [5] it was 16 mm; in the assay on Candida albicans [9], 17 mm. Further, the IC50 in assay [3], in [4], in assay [6], in [7] and in [8] was above 10 µM throughout.

As for `COc1ccc(CNc2ncnc3c(C(C)C)n[nH]c23)cc1O`, the midpoint of inhibition in assay [13], the IC50, lay at 1.1 µM.

With `CC1(C)S[C@@H]2[C@H](NC(=O)[C@H](N)c3ccccc3)C(=O)N2[C@H]1C(=O)O` [AMPICILLIN], the “diameter of the inhibition zone (DIZ)” value in the assay on Staphylococcus aureus [10] is 40 mm; with Pseudomonas aeruginosa [1] it was 18 mm; with Escherichia coli [5], 26 mm. The figures for the MBC in the assay on Staphylococcus aureus [11], against Pseudomonas aeruginosa [12] and with Escherichia coli [14] were 15.6 µg/mL (≈ 44.7 µM), 500 µg/mL (≈ 1430 µM) and 31.2 µg/mL (≈ 89.4 µM), respectively. For the same compound, the MIC against Staphylococcus aureus [11] was 3.9 µg/mL (≈ 11.2 µM); against Pseudomonas aeruginosa [12], 250 µg/mL (≈ 715 µM).

In the assay on Candida albicans [2], `Clc1ccccc1C(c1ccccc1)(c1ccccc1)n1ccnc1` [CLOTRIMAZOLE] had an MBC of 15.6 µg/mL (≈ 45.3 µM) and an MIC of 7.81 µg/mL (≈ 22.6 µM). In addition, the “diameter of the inhibition zone (DIZ)” value in the assay on Candida albicans [9] turned out to be 28 mm.

Source of the values: ChEMBL document CHEMBL3046637, “Synthesis of new series of pyrazolo[4,3-d]pyrimidin-7-ones and pyrido[2,3-d]pyrimidin-4-ones for their bacterial and cyclin-dependent kinases (CDKs) inhibitory activities” (Med Chem Res, 2011).
